Assay results taken from patent US5753458A, “Acylation method for penicillins and cephalosporins” (Gist-Brocades B.V., priority 1994, dated 1998).
Where a name gives a salt, the structure may show the parent alone.

Assays:
[1] = molecular target: T1, immobilized penicillin G acylase from E. coli (Escherichia coli, UniProt P06875); test: Enzymatic amoxicillin synthesis with immobilized Pen G acylase and various enzyme modulators (Example 8); type: biochemical; conditions: standard synthesis conditions; enzyme 13 U/ml
T1 sequence (P06875 27-235): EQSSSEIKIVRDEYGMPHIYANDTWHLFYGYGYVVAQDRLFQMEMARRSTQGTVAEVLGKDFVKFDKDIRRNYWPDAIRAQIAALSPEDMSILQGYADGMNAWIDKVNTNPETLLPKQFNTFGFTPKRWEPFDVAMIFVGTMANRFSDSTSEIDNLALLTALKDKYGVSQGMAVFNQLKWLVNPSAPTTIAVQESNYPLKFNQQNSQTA
T1 sequence (P06875 290-846): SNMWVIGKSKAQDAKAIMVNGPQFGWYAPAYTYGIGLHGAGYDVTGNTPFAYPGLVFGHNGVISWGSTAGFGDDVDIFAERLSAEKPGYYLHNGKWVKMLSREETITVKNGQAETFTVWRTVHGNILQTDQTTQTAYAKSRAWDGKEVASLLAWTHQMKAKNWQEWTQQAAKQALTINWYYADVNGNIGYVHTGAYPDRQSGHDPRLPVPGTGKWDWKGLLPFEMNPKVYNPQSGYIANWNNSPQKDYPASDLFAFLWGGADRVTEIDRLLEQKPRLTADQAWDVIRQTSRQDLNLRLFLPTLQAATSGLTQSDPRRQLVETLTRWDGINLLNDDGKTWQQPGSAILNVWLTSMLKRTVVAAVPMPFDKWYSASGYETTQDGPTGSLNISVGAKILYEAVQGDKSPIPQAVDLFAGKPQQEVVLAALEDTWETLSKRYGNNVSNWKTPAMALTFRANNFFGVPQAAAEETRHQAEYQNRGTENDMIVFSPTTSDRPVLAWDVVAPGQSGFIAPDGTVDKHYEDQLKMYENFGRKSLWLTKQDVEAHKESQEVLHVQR
Description: (§1) The ratio X is defined as the number of moles of D-HPGA consumed per mole of Amox produced. For practical use this can be transformed to X=1+moles D-HPG/moles Amox, wherein "moles D-HPG" is the molar amount of D-HPG produced by hydrolysis of the acylating agent and the desired product and "moles Amox" is the molar amount of Amox present in the reaction mixture. Thus, if X is 1 this means that only the desired synthesis takes place, no hydrolysis. If X is 2, this means that D-HPG and Amox are formed in equal amounts (on a molar basis). If X is 3, this means that twice as much D-HPG as Amox is present in the reaction mixture (on a molar basis). The ratio X can be calculated at any time during reaction, but in the following examples X is calculated at the reaction stop time, which is defined as the time at which 90 % of the theoretical yield of Amox is present in the reaction mixture (based on the inserted amount of 6-APA). Square brackets are used to designate molar concentrations.
(§2) In Examples 1-8 the following standard conditions for enzymatic amoxicillin synthesis have been used (see patent application No. WO 92/01061 for further details):
(§3) During the reactions, the pH value of the reaction mixtures was kept constant by titration with 2M sulphuric acid.
(§4) Representative samples of the reaction mixtures including solid constituents were taken at regular intervals during the reactions and analyzed by HPLC.
The compounds listed below improve synthesis performance (standard synthesis conditions, immobilized penicillin G acylase from E. coli; enzyme dosing 13 U/ml) in the sense that when they are present in the reaction mixture in a concentration within the interval specified, synthesis of the desired β-lactam antibiotic is favoured as compared to hydrolysis of the acylating agent: […]

[2] = molecular target: T1, immobilized penicillin G acylase from E. coli; test: Enzymatic amoxicillin synthesis with immobilized Pen G acylase, L-(+)-mandelic acid varied (Example 6); type: biochemical; conditions: enzyme 12.0 U/ml
Description: (§5) V0 (Amox) is the initial velocity of Amox formation, and V0 (D-HPG) is the initial velocity of D-HPG formation, specified as μmoles/min/g enzyme, μmoles/min/ml reaction mixture, or nmoles/min/U (enzyme activity).
as §1, §2, §3, §4
A standard synthesis (immobilized penicillin G acylase from E. coli; enzyme dosing 12.0 U/ml) was carried out with no L-(+)-mandelic acid added.
Same conditions as in Experiment A were employed, except that L-(+)-mandelic acid was added to the reaction mixture at the beginning of the experiment in amounts as specified in Table 6. A side product obtained was α-hydroxybenzylpenicillin.

[3] = molecular target: T1, immobilized penicillin G acylase from E. coli; test: Enzymatic amoxicillin synthesis with immobilized Pen G acylase, Phox concentration varied (Example 1); type: biochemical; conditions: enzyme 8.6 U/ml
Description: as §5, §1, §3, §4

[4] = molecular target: T2, agarose based penicillin G acylase immobilizate (Escherichia coli, UniProt P06875); test: Enzymatic amoxicillin synthesis with varying enzyme amounts and constant Phox (Example 4); type: biochemical; conditions: [Phox] 31 μM
T2 construct: processed alpha/beta heterodimer cut from one precursor (signal and spacer peptides removed)
T2 sequence (P06875 290-846): as above
T2 sequence (P06875 27-235): as the sequence (P06875 27-235) above
Description: as §5, §1, §3, §4
An agarose based penicillin G acylase immobilizate was employed in the following experiments. The immobilizate which was kept in water was drained of excess water on a filter by applying suction for 1 min.

[5] = molecular target: T1, immobilized penicillin G acylase from E. coli; test: Enzymatic amoxicillin synthesis with immobilized Pen G acylase, Phyl concentration varied (Example 2); type: biochemical; conditions: [Phox] 2.6 μM, enzyme 8.6 U/ml
Description: as §5, §1, §2, §3, §4
A standard synthesis (immobilized penicillin G acylase from E. coli; enzyme dosing 8.6 U/ml) was carried out with no Phyl added.
Same conditions as in Experiment A were employed, except that Phyl was added to the reaction mixture at the beginning of the experiment in amounts so that the concentrations specified in Table 2 were obtained.

[6] = molecular target: T3, Boehringer Mannheim immobilized penicillin G acylase, experimental preparation (Escherichia coli, UniProt P06875); test: Enzymatic amoxicillin synthesis with immobilized Pen G acylase, 2-thiopheneacetic acid varied (Example 7); type: biochemical; conditions: enzyme 12 U/ml
T3 construct: purchased Boehringer Mannheim (experimental preparation)
T3 sequence (P06875 27-235): as above
T3 sequence (P06875 290-846): as the sequence (P06875 290-846) above
Description: as §5, §1, §2, §3, §4
A standard synthesis (Boehringer Mannheim immobilized penicillin G acylase, experimental preparation; enzyme dosing 12 U/ml) was carried out with no 2-thiopheneacetic acid added.
Same conditions as in Experiment A were employed, except that 2-thiopheneacetic acid was added to the reaction mixture at the beginning of the experiment in amounts as specified in Table 7.

[7] = Solubility of acylating agent in aqueous system; type: physicochemical; conditions: aqueous system as used in the examples; dependent on salts, pH, temperature
Description: The solubility of the acylating agent such as the D-phenylglycine or D-p-hydroxyphenylglycine derivative or originating from the D,L mixtures as described in EP-A-339751, will vary with the identity of the derivative and with the composition of the reaction medium. […] However, the solubility is very dependent on the salt components in the solution, as well as on the pH value and the temperature of the solution. In some embodiments of the process of this invention, the initial reaction mixture is a slurry containing undissolved acylating agent and/or amino β-lactam, which will dissolve partly or fully during the course of the reaction. The β-lactam antibiotic formed may precipitate during the reaction and, also, the hydrolysis products of the acylating agent such as D-phenylglycine and D-p-hydroxyphenylglycine, may precipitate.

[8] = Exp B, [L-(+)-Mandelic acid] 0.64 mM
[9] = Exp C, [L-(+)-Mandelic acid] 3.3 mM
[10] = Exp D, [L-(+)-Mandelic acid] 6.7 mM
[11] = Exp E, [L-(+)-Mandelic acid] 13.3 mM
[12] = Exp F, [L-(+)-Mandelic acid] 14.2 mM
[13] = Exp G, [L-(+)-Mandelic acid] 36.1 mM
[14] = Exp A, [Phox] 2.6 μM (residual, none added)
[15] = Exp B, [Thiopheneacetic acid] 0.03 mM
[16] = Exp C, [Thiopheneacetic acid] 0.3 mM

With `O=[N+]([O-])c1ccc(O)c(CBr)c1` [2-Hydroxy-5-nitrobenzyl bromide] the “Concentration interval where improvement of ratio X is found” value [1] was 10 to 500 µM.

In the case of `O=C(O)CSc1ccccc1` [(Phenylthio)acetic acid], the “Concentration interval where improvement of ratio X is found” value [1] is reported as 2 to 1000 µM.

In the case of `O=C(O)[C@@H](O)c1ccccc1` [L-(+)-Mandelic acid, L-(+)-mandelic acid], the “Initial velocity V0 (Amox)” value [2, 8] is reported as 156 nmoles/min/U, the “Initial velocity V0 (D-HPG)” value [2, 8] is reported as 207 nmoles/min/U and the Reaction stop time [2, 8] is reported as 2.4 h. For the same compound, the “X at reaction stop time” value [2, 8] was 2.9, the “Initial velocity V0 (Amox)” value [2, 9] was 137 nmoles/min/U and the “Initial velocity V0 (D-HPG)” value [2, 9] was 174 nmoles/min/U. The Reaction stop time [2, 9] was 2.8 h, the “X at reaction stop time” value [2, 9] was 2.8 and the “Initial velocity V0 (Amox)” value [2, 10] was 119 nmoles/min/U. The “Initial velocity V0 (D-HPG)” value [2, 10] was 146 nmoles/min/U, the Reaction stop time [2, 10] was 3.0 h and the “X at reaction stop time” value [2, 10] was 2.65. The “Initial velocity V0 (Amox)” value [2, 11] was 89 nmoles/min/U, the “Initial velocity V0 (D-HPG)” value [2, 11] was 110 nmoles/min/U and the Reaction stop time [2, 11] was 4.7 h. The “X at reaction stop time” value [2, 11] was 2.65, the “Initial velocity V0 (Amox)” value [2, 12] was 80 nmoles/min/U and the “Initial velocity V0 (D-HPG)” value [2, 12] was 106 nmoles/min/U. The Reaction stop time [2, 12] was 4.2 h, the “X at reaction stop time” value [2, 12] was 2.8 and the “Initial velocity V0 (Amox)” value [2, 13] was 49 nmoles/min/U. For the same compound, the “Initial velocity V0 (D-HPG)” value [2, 13] was 68 nmoles/min/U, the Reaction stop time [2, 13] was 5.5 h and the “X at reaction stop time” value [2, 13] was 2.8. The “optimal concentration with respect to minimization of the ratio X” value ([2]; under the conditions chosen) was 3.3 to 14.2 mM.

In the case of `CC1(C)[C@H](C(=O)O)N2C(=O)[C@@H](NC(=O)Cc3ccccc3)[C@H]2[S+]1[O-]` (stereo partly drawn) [Penicillin G sulfoxide], the “Concentration interval where improvement of ratio X is found” value [1] is reported as 2 to 500 µM.

In the case of `CC1(C)S[C@@H]2[C@H](NC(=O)Cc3ccccc3)C(=O)N2[C@H]1C(=O)O` [Penicillin G], the “Concentration interval where improvement of ratio X is found” value [1] is reported as 2 to 1000 µM.

For `CC1(C)S[C@@H]2[C@H](NC(=O)COc3ccccc3)C(=O)N2[C@H]1C(=O)O` [Penicillin V], the “Concentration interval where improvement of ratio X is found” value [1] was 2-1000 μm.

In the case of `O=S(=O)(F)Cc1ccccc1` [Phenylmethylsulfonyl fluoride], the “Concentration interval where improvement of ratio X is found” value [1] is reported as 0.2 to 10 µM.

With `O=C(O)COc1ccccc1` [Phox, phenoxyacetic acid] the “Initial velocity V0 (Amox)” value [3, 14] was 17.7 µmol/min/g, the “Initial velocity V0 (D-HPG)” value [3, 14] was 25.0 µmol/min/g and the Reaction stop time [3, 14] was 2.1 h. The “X at reaction stop time” value [3, 14] was 2.9, the “Initial velocity V0 (Amox)” value ([3]; Exp B, [Phox] 9.9 μM) was 13.1 µmol/min/g and the “Initial velocity V0 (D-HPG)” value ([3]; Exp B, [Phox] 9.9 μM) was 16.5 µmol/min/g. For the same compound, the Reaction stop time ([3]; Exp B, [Phox] 9.9 μM) was 3.3 h, the “X at reaction stop time” value ([3]; Exp B, [Phox] 9.9 μM) was 2.7 and the “Initial velocity V0 (Amox)” value ([3]; Exp C, [Phox] 16.8 μM) was 11.9 µmol/min/g. The “Initial velocity V0 (D-HPG)” value ([3]; Exp C, [Phox] 16.8 μM) was 13.8 µmol/min/g, the Reaction stop time ([3]; Exp C, [Phox] 16.8 μM) was 4.1 h and the “X at reaction stop time” value ([3]; Exp C, [Phox] 16.8 μM) was 2.55. For the same compound, the “Initial velocity V0 (Amox)” value ([3]; Exp D, [Phox] 31.0 μM) was 8.8 µmol/min/g, the “Initial velocity V0 (D-HPG)” value ([3]; Exp D, [Phox] 31.0 μM) was 8.8 µmol/min/g and the Reaction stop time ([3]; Exp D, [Phox] 31.0 μM) was 5.7 h. For the same compound, the “X at reaction stop time” value ([3]; Exp D, [Phox] 31.0 μM) was 2.35, the “Initial velocity V0 (Amox)” value ([3]; Exp E, [Phox] 61.7 μM) was 6.5 µmol/min/g and the “Initial velocity V0 (D-HPG)” value ([3]; Exp E, [Phox] 61.7 μM) was 5.4 µmol/min/g. The Reaction stop time ([3]; Exp E, [Phox] 61.7 μM) was 9.5 h, the “Initial velocity V0 (Amox)” value ([4]; Exp A, enzyme dosage 11.9 U/ml) was 1.17 µmol/min/mL and the “X at stop time” value ([4]; Exp A, enzyme dosage 11.9 U/ml) was 1.75. For the same compound, the “Initial velocity V0 (Amox)” value ([4]; Exp B, enzyme dosage 23.8 U/ml) was 2.97 µmol/min/mL, the “Initial velocity V0 (D-HPG)” value ([4]; Exp B, enzyme dosage 23.8 U/ml) was 1.85 µmol/min/mL and the “Initial velocity V0 (D-HPG)” value ([4]; Exp C, enzyme dosage 47.5 U/ml) was “ca. 5.6 μmoles/min/ml”. For the same compound, the “X at stop time” value ([4]; Exp C, enzyme dosage 47.5 U/ml) was “ca. 2.0”.

With `O=C(O)Cc1ccccc1` [Phyl, phenylacetic acid] the “Initial velocity V0 (Amox)” value ([5]; Exp B, [Phyl] 32.9 μM) was 10.8 µmol/min/g, the “Initial velocity V0 (D-HPG)” value ([5]; Exp B, [Phyl] 32.9 μM) was 13.8 µmol/min/g and the Reaction stop time ([5]; Exp B, [Phyl] 32.9 μM) was 4.2 h. For the same compound, the “X at reaction stop time” value ([5]; Exp B, [Phyl] 32.9 μM) was 2.7, the “Initial velocity V0 (Amox)” value ([5]; Exp C, [Phyl] 63.3 μM) was 8.1 µmol/min/g and the “Initial velocity V0 (D-HPG)” value ([5]; Exp C, [Phyl] 63.3 μM) was 8.8 µmol/min/g. The Reaction stop time ([5]; Exp C, [Phyl] 63.3 μM) was 5.1 h, the “X at reaction stop time” value ([5]; Exp C, [Phyl] 63.3 μM) was 2.5 and the “Initial velocity V0 (Amox)” value ([5]; Exp D, [Phyl] 127 μM) was 5.2 µmol/min/g. For the same compound, the “Initial velocity V0 (D-HPG)” value ([5]; Exp D, [Phyl] 127 μM) was 5.4 µmol/min/g, the Reaction stop time ([5]; Exp D, [Phyl] 127 μM) was 5.8 h and the “X at reaction stop time” value ([5]; Exp D, [Phyl] 127 μM) was 2.2.

In the case of `O=C(O)Cc1cccs1` [Thiopheneacetic acid, 2-thiopheneacetic acid], the “Initial velocity V0 (Amox)” value [6, 15] is reported as 1.68 µmol/min/mL, the “Initial velocity V0 (D-HPG)” value [6, 15] is reported as 1.95 µmol/min/mL and the Reaction stop time [6, 15] is reported as 2.3 h. For the same compound, the “X at reaction stop time” value [6, 15] was 2.7, the “Initial velocity V0 (Amox)” value [6, 16] was 0.15 µmol/min/mL and the “Initial velocity V0 (D-HPG)” value [6, 16] was 0.058 µmol/min/mL. For the same compound, the Reaction stop time [6, 16] was 12 h and the “X at reaction stop time” value [6, 16] was 1.6.

With `NC(=O)[C@H](N)c1ccccc1` [hydrochloride of D-phenylglycine amide, D-phenylglycine amide] the solubility [7] was “approximately 450 mM”.

In the case of `O=C(O)COc1ccc(O)cc1` [p-Hydroxyphenoxyacetic acid], the “Concentration interval where improvement of ratio X is found” value [1] is reported as 2 to 500 µM.
